From patent US6242494A, “Substituted β-amino acid inhibitors of methionine aminopeptidase-2” (Abbott Laboratories, priority 1999, dated 2001)
Counter-ions that a name gives are not always drawn.

Molecular target: T1, methionine aminopeptidase-2 (MetAP2) (Homo sapiens, UniProt P50579)
T1 construct: made in house; host or cells: insect cells, baculovirus system (secreted, purified from culture supernatant)
Test: Inhibition of MetAP2 enzyme activity (96-well, Met-Ala-Ser substrate, L-amino acid oxidase/peroxidase/ortho-dianisidine, 450 nm)
Format: biochemical
Conditions: IC50, recombinant MetAP2 4 μg/mL, pH 7.4, Met-Ala-Ser substrate, 20 minutes
Procedure: The ability of compounds of the present invention to inhibit methionine aminopeptidase 2 was evaluated using the following assay.
Assays for MetAP2 enzyme activity and MetAP2 inhibition were performed in 96-well microtiter plates. Compounds to be tested for MetAP2 inhibition were dissolved in dimethyl-sulfoxide at 10 mM and diluted ten-fold in assay buffer ([…], pH 7.4, 100 mM NaCl). Ten microliters of solution of each compound to be tested for inhibition were introduced into each cell of the plate, with each compound being tested in triplicate.
The absorbence at 450 nanometers was measured every 20 seconds over a period of twenty minutes using an automaic plate reader (Molecular Devices, CA, USA). The Vmax in mOD/min, calculated for each well was used to represent MetAP2 activity. The IC50 for each inhibitor was obtained by plotting the remaining MetAP2 activity versus inhibitor concentration.

T1 sequence (P50579 whole entry): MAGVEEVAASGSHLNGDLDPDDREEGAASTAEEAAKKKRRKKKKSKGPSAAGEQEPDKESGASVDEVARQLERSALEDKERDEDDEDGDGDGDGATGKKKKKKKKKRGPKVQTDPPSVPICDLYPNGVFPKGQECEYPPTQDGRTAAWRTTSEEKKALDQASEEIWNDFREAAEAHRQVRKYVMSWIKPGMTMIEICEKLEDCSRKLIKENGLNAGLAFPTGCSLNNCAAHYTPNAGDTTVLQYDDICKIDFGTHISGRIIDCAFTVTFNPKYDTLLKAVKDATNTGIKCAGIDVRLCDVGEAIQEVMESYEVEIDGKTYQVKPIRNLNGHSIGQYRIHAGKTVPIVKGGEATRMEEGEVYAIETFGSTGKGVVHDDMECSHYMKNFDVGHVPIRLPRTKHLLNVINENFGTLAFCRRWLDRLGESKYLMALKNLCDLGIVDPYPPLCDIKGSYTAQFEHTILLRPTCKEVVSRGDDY

Structure (SMILES)	IC50 [nM]
N[C@H](CC1CCCCC1)C(O)C(=O)NCCc1ccc(F)cc1 (mixture of isomers) [Example 142, (2RS,3R)-3-amino-4-cyclohexyl-N-(4-fluorophenethyl)-2-hydroxybutanamide hydrochloride]	400
Cc1ccc(NC(=O)C(O)[C@H](N)CC2CCCCC2)cc1 (mixture of isomers) [Example 143, (2RS,3R)-3-amino-4-cyclohexyl-2-hydroxy-N-(4-methylphenyl)butanamide]	870
N[C@H](CC1CCCCC1)C(O)C(=O)Nc1ccc(F)cc1 (mixture of isomers) [Example 144, (2RS,3R)-3-amino-4-cyclohexyl-N-(4-fluorophenyl)-2-hydroxybutanamide]	2100
COc1ccc(NC(=O)C(O)[C@H](N)CC2CCCCC2)cc1 (mixture of isomers) [Example 145, (2RS,3R)-3-amino-4-cyclohexyl-2-hydroxy-N-(4-methoxyphenyl)butanamide]	1200
COc1ccccc1NC(=O)C(O)[C@H](N)CC1CCCCC1 (mixture of isomers) [Example 146, (2RS,3R)-3-amino-4-cyclohexyl-2-hydroxy-N-(2-methoxyphenyl)butanamide]	1500
N[C@H](CC1CCCCC1)C(O)C(=O)Nc1ccc(Cl)cc1 (mixture of isomers) [Example 147, (2RS,3R)-3-amino-N-(4-chlorophenyl)-4-cyclohexyl-2-hydroxybutanamide]	1000
N[C@H](CC1CCCCC1)C(O)C(=O)Nc1cccc(Cl)c1 (mixture of isomers) [Example 148, (2RS,3R)-3-amino-N-(3-chlorophenyl)-4-cyclohexyl-2-hydroxybutanamide]	520
N[C@H](CC1CCCCC1)C(O)C(=O)Nc1ccccc1Cl (mixture of isomers) [Example 149, (2RS,3R)-3-amino-N-(2-chlorophenyl)-4-cyclohexyl-2-hydroxybutanamide]	930
N[C@H](CC1CCCCC1)C(O)C(=O)Nc1cccc(C(F)(F)F)c1 (mixture of isomers) [Example 151, (2RS,3R)-3-amino-4-cyclohexyl-2-hydroxy-N-(3-(trifluoromethyl)phenyl)butanamide]	430
N[C@H](CC1CCCCC1)C(O)C(=O)Nc1ccc(C(F)(F)F)cc1 (mixture of isomers) [Example 152, (2RS,3R)-3-amino-4-cyclohexyl-2-hydroxy-N-(4-(trifluoromethyl)phenyl)butanamide]	2400
N[C@H](CC1CCCCC1)C(O)C(=O)Nc1ccc(Cl)c(Cl)c1 (mixture of isomers) [Example 153, (2RS,3R)-3-amino-4-cyclohexyl-N-(3,4-dichlorophenyl)-2-hydroxybutanamide]	370
N[C@H](CC1CCCCC1)C(O)C(=O)Nc1ccc(Cl)cc1Cl (mixture of isomers) [Example 154, (2RS,3R)-3-amino-4-cyclohexyl-N-(2,4-dichlorophenyl)-2-hydroxybutanamide]	1900
N[C@H](CC1CCCCC1)C(O)C(=O)NCc1ccc(C(F)(F)F)cc1 (mixture of isomers) [Example 158, (2RS,3R)-3-amino-4-cyclohexyl-2-hydroxy-N-(4-(trifluoromethyl)benzyl)butanamide]	2800
N[C@H](CC1CCCCC1)C(O)C(=O)NCc1ccccc1Cl (mixture of isomers) [Example 159, (2RS,3R)-3-amino-N-(2-chlorobenzyl)-4-cyclohexyl-2-hydroxybutanamide]	1500
COc1ccc([N+](=O)[O-])cc1NC(=O)C(O)[C@H](N)CC1CCCCC1 (mixture of isomers) [Example 160, (2RS,3R)-3-amino-4-cyclohexyl-2-hydroxy-N-(2-methoxy-5-nitrophenyl)butanamide hydrochloride]	900
COc1cc(NC(=O)C(O)[C@H](N)CC2CCCCC2)cc(OC)c1 (mixture of isomers) [Example 161, (2RS,3R)-3-amino-4-cyclohexyl-N-(3,5-dimethoxyphenyl)-2-hydroxybutanamide hydrochloride]	620
N[C@H](CC1CCCCC1)C(O)C(=O)Nc1cccc(Oc2ccccc2)c1 (mixture of isomers) [Example 162, (2RS,3R)-3-amino-4-cyclohexyl-2-hydroxy-N-(3-phenoxyphenyl)butanamide hydrochloride]	1200
N[C@H](CC1CCCCC1)C(O)C(=O)NCCc1cccc(F)c1 (mixture of isomers) [Example 166, (2RS,3R)-3-amino-4-cyclohexyl-N-(3-fluorophenethyl)-2-hydroxybutanamide hydrochloride]	590
N[C@H](CC1CCCCC1)C(O)C(=O)NCCc1ccc(OCc2ccccc2)c(OCc2ccccc2)c1 (mixture of isomers) [Example 167, (2RS,3R)-3-amino-N-(3,4-bis(benzyloxy)phenethyl)-4-cyclohexyl-2-hydroxybutanamide hydrochloride]	3300
N[C@H](CC1CCCCC1)C(O)C(=O)NCCc1ccc(Oc2ccccc2)cc1 (mixture of isomers) [Example 168, (2RS,3R)-3-amino-4-cyclohexyl-2-hydroxy-N-(4-phenoxyphenethyl)butanamide hydrochloride]	1500
N[C@H](CC1CCCCC1)C(O)C(=O)Nc1cccc(OC(F)(F)F)c1 (mixture of isomers) [Example 170, (2RS,3R)-3-amino-4-cyclohexyl-2-hydroxy-N-(3-(trifluoromethoxy)phenyl)butanamide hydrochloride]	1000
Cc1ccccc1NC(=O)C(O)[C@H](N)CC1CCCCC1 (mixture of isomers) [Example 171, (2RS,3R)-3-amino-4-cyclohexyl-2-hydroxy-N-(2-methylphenyl)butanamide hydrochloride]	950
Cc1cccc(C)c1NC(=O)C(O)[C@H](N)CC1CCCCC1 (mixture of isomers) [Example 172, (2RS,3R)-3-amino-4-cyclohexyl-N-(2,6-dimethylphenyl)-2-hydroxybutanamide hydrochloride]	5000
Cc1cc(I)ccc1NC(=O)C(O)[C@H](N)CC1CCCCC1 (mixture of isomers) [Example 173, (2RS,3R)-3-amino-4-cyclohexyl-2hydroxy-N-(4-iodo-2-methylphenyl)butanamide hydrochloride]	580
COc1cc(Nc2ccccc2)ccc1NC(=O)C(O)[C@H](N)CC1CCCCC1 (mixture of isomers) [Example 174, (2RS,3R)-3-amino-N-(4-anilino-2-methoxyphenyl)-4-cyclohexyl-2-hydroxybutanamide hydrochloride]	1500
CCOc1ccccc1NC(=O)C(O)[C@H](N)CC1CCCCC1 (mixture of isomers) [Example 175, (2RS,3R)-3-amino-4-cyclohexyl-N-(2-ethoxyphenyl)-2-hydroxybutanamide hydrochloride]	2100
COc1cc(Cl)c(C)cc1NC(=O)C(O)[C@H](N)CC1CCCCC1 (mixture of isomers) [Example 176, (2RS,3R)-3-amino-N-(4-chloro-2-methoxy-5-methylphenyl)-4-cyclohexyl-2-hydroxybutanamide hydrochloride]	3400
COc1ccc(OC)c(NC(=O)C(O)[C@H](N)CC2CCCCC2)c1 (mixture of isomers) [Example 177, (2RS,3R)-3-amino-4cyclohexyl-N-(2,5-dimethoxyphenyl)-2-hydroxybutanamide hydrochloride]	2000
